Publication PMC4447944 (The Journal of Biological Chemistry, 2015)
pIC50: −log10 of the molar value.

Experiments:
hLOK = biological target: T1, hLOK (Homo sapiens, UniProt O94804); experiment: KINOMEscan; type: binding
T1 construct: purchased DiscoverX (KINOMEscan platform)

hCAMK4 = biological target: T2, hCAMK4 (Homo sapiens, UniProt Q16566); experiment: KINOMEscan; type: binding
T2 construct: purchased DiscoverX

hFXR = hFXR (Homo sapiens, UniProt Q96RI1); experiment: Nuclear hormone receptor assay (Eurofins-CEREP)
hADRβ1 [1] = biological target: T3, hADRβ1 (Homo sapiens, UniProt P08588); experiment: cAMP Agonist (Eurofins-CEREP); details: @ 10 μM
T3 sequence (P08588 whole entry): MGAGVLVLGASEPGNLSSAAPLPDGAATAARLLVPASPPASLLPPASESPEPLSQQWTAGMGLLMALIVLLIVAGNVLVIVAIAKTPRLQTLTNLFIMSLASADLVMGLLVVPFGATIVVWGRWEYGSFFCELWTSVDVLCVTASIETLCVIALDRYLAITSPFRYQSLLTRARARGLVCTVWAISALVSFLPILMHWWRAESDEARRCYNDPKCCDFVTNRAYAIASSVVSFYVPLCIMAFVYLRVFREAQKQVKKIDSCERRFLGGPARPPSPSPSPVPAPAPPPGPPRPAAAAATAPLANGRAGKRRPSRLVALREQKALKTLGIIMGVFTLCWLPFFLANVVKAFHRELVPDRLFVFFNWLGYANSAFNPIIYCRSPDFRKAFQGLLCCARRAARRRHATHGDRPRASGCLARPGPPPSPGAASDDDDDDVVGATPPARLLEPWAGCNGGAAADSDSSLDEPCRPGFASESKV

mono-methyl-Lys370 p53 = experiment: Meso Scale Discovery sandwich ELISA mono-methyl-Lys370 p53/total p53, KYSE-150 cells stably expressing FLAG-SMYD2; type: cell-based; details: Homo sapiens; KYSE-150 stably expressing SMYD2, sandwich ELISA, 24 h
Protocol: (§1) Cell lysates were subject to 10% SDS-PAGE and transferred to a PVDF membrane. Each membrane was blocked in Odyssey Blocking Buffer (LI-COR Biosciences) and incubated with monoclonal anti-p53 (D01) antibody (Abcam, ab1101) or rabbit anti-p53 Lys^370me1 antibody (a kind gift from Dr. Shelley Berger) followed by detection with IRDye®680RD goat anti-mouse IgG (LI-COR Biosciences) and IRDye800CW goat anti-rabbit IgG (LI-COR Biosciences) on the Odyssey Imager (LI-COR Biosciences). […] 4–8 h later, cells were treated with 0–25 μM compound for 15 h. […] 24 h later, cells were lysed with 200 μl of MSD Tris Lysis Buffer^TM (Meso Scale Discovery). A MULTI-ARRAY^TM 96-well plate (Meso Scale Discovery, catalog number L15XA-3) was precoated with 2 μg/ml custom-made methyl-p53 antibody (Lampire) in PBS overnight at 4 °C. 150 μl/well MSD Blocking Solution A^TM (final concentration of 3%) was added followed by shaking at room temperature for 1 h. The plate was washed three times with 1× MSD Tris Wash Buffer^TM (Meso Scale Discovery). 0.5 μg of cell lysate in 25 μl/well MSD Tris Lysis Buffer was added, followed by shaking overnight at 4 °C. […] Following a final wash three times with 1× MSD Tris Wash Buffer, 150 μl/well 1× MSD Read Buffer^TM (Meso Scale Discovery) was added, and plates were read on an MSD SECTOR^TM Imager 6000 instrument (Meso Scale Discovery).

hTAOK2 = biological target: T4, hTAOK2 (Homo sapiens, UniProt Q9UL54); experiment: KINOMEscan; type: binding
T4 construct: purchased DiscoverX

hMEK2 = biological target: T5, hMEK2 (Homo sapiens, UniProt P36507); experiment: KINOMEscan; type: binding
T5 construct: purchased DiscoverX
T5 sequence (P36507 whole entry): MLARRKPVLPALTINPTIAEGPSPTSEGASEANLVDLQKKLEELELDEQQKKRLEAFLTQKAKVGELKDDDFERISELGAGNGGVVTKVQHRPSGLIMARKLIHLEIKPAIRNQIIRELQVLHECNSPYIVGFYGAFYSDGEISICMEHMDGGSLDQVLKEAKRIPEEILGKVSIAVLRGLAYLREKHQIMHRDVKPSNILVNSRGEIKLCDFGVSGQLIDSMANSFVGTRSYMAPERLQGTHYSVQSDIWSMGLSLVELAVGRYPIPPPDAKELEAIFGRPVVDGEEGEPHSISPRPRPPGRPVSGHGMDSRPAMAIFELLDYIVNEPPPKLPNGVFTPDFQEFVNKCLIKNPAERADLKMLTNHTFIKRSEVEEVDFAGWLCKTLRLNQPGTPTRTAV

hTNK1 = biological target: T6, hTNK1 (Homo sapiens, UniProt Q13470); experiment: KINOMEscan; type: binding
T6 construct: purchased DiscoverX

hADRβ1 [2] = biological target: T3, hADRβ1; experiment: cAMP Potentiation (Eurofins-CEREP); details: @ 10 μM
hKIT(V559D) = biological target: T7, hKIT(V559D) (Homo sapiens, UniProt P10721, V559D); experiment: KINOMEscan; type: binding
T7 construct: purchased DiscoverX (KINOMEscan platform)
T7 sequence (P10721 26-976 V559D): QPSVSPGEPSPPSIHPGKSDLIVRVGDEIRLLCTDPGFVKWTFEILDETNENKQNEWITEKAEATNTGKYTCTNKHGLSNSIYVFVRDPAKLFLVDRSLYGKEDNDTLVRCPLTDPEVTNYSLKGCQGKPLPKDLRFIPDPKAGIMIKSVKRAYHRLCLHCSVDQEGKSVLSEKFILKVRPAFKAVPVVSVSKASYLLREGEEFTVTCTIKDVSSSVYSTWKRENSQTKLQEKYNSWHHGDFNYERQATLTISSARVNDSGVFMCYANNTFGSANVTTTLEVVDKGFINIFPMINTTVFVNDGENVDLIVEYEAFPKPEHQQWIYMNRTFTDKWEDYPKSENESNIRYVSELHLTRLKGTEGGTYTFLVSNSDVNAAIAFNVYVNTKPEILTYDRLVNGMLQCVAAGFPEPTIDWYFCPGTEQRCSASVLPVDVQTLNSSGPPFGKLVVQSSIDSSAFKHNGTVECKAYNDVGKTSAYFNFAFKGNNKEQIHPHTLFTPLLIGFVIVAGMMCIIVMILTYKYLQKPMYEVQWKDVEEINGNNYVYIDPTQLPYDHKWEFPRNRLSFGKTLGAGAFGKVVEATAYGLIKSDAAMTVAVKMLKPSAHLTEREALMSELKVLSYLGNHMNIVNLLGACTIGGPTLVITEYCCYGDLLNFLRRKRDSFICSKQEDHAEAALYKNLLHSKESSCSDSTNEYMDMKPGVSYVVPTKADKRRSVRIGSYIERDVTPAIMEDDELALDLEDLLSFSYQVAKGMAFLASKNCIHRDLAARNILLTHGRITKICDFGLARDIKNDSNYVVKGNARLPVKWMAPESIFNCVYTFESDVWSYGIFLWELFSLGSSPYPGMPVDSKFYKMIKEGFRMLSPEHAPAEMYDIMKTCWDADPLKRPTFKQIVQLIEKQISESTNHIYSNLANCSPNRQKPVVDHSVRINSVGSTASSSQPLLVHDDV

hABL1(pM351T) = biological target: T8, hABL1(pM351T) (Homo sapiens, UniProt P00519, M351T); experiment: KINOMEscan; type: binding
T8 construct: purchased DiscoverX (KINOMEscan platform)

hCAMK2D = biological target: T9, hCAMK2D (Homo sapiens, UniProt Q13557); experiment: KINOMEscan; type: binding
T9 construct: purchased DiscoverX

hRIPK4 = biological target: T10, hRIPK4 (Homo sapiens, UniProt P57078); experiment: KINOMEscan; type: binding
T10 construct: purchased DiscoverX (KINOMEscan platform)

hZAK = biological target: T11, hZAK (Homo sapiens, UniProt Q9NYL2); experiment: KINOMEscan; type: binding
T11 construct: purchased DiscoverX
T11 sequence (Q9NYL2 whole entry): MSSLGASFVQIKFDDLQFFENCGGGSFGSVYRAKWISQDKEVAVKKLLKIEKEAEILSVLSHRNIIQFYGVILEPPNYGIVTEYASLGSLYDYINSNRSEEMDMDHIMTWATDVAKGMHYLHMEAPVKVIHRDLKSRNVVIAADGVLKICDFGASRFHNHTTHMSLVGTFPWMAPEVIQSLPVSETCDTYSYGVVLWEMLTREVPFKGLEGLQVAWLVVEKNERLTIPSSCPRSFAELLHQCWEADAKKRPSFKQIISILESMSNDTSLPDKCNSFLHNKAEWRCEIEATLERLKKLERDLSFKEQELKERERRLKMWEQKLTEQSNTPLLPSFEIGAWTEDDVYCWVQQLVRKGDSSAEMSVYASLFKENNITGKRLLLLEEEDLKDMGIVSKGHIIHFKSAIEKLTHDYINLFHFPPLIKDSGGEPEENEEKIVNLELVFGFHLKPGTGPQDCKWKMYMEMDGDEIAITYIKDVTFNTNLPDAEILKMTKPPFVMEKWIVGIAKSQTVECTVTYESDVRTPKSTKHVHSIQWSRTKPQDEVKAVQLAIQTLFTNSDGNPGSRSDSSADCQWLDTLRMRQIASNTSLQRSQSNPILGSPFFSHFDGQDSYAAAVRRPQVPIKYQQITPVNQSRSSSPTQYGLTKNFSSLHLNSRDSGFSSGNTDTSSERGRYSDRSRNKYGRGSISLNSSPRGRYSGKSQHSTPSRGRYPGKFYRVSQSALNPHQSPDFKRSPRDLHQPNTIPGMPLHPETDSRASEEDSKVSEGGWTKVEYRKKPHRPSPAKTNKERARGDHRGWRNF

hSIK = biological target: T12, hSIK (Homo sapiens, UniProt P57059); experiment: KINOMEscan; type: binding
T12 construct: purchased DiscoverX (KINOMEscan platform)

hCAMK2A = biological target: T13, hCAMK2A (Homo sapiens, UniProt Q9UQM7); experiment: KINOMEscan; type: binding
T13 construct: purchased DiscoverX

hADCK4 = biological target: T14, hADCK4 (Homo sapiens, UniProt Q96D53); experiment: KINOMEscan; type: binding
T14 construct: purchased DiscoverX
T14 sequence (Q96D53 whole entry): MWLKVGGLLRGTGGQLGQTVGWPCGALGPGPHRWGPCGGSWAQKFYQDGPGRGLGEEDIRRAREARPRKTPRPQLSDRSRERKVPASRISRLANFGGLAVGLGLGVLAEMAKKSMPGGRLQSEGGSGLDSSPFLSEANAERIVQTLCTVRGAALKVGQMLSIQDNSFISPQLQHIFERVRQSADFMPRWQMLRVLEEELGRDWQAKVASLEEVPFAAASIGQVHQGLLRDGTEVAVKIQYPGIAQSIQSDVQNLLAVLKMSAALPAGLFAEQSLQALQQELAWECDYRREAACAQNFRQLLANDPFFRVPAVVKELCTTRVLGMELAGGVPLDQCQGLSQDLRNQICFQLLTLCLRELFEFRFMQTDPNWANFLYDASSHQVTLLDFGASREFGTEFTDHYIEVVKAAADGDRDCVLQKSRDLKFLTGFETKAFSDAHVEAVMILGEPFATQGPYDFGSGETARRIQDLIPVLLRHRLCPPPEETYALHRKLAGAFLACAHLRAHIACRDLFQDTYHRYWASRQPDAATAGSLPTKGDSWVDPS

hRARγ = biological target: T15, hRARγ (Homo sapiens, UniProt P13631); experiment: Nuclear hormone receptor assay (Eurofins-CEREP); details: read-out: Relative IC50
T15 construct: Eurofins-CEREP
T15 sequence (P13631 whole entry): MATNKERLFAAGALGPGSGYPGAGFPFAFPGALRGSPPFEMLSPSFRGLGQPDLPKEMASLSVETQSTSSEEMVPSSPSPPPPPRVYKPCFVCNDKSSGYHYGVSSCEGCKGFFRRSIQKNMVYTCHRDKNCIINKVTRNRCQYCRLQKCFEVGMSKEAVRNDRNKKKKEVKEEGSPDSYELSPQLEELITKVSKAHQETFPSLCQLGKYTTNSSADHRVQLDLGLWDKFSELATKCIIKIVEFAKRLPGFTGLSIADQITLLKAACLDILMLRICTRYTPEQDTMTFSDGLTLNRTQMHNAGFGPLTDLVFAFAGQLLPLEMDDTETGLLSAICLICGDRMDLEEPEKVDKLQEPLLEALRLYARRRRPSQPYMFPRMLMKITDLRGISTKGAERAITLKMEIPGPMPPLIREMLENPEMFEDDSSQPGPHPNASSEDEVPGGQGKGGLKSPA

hEPHA4 = biological target: T16, hEPHA4 (Homo sapiens, UniProt P54764); experiment: KINOMEscan; type: binding
T16 construct: purchased DiscoverX

hALK(L1196M) = biological target: T17, hALK(L1196M) (Homo sapiens, UniProt Q9UM73, L1196M); experiment: KINOMEscan; type: binding
T17 construct: purchased DiscoverX

hROCK2 = biological target: T18, hROCK2 (Homo sapiens, UniProt O75116); experiment: KINOMEscan; type: binding
T18 construct: purchased DiscoverX (KINOMEscan platform)
T18 sequence (O75116 whole entry): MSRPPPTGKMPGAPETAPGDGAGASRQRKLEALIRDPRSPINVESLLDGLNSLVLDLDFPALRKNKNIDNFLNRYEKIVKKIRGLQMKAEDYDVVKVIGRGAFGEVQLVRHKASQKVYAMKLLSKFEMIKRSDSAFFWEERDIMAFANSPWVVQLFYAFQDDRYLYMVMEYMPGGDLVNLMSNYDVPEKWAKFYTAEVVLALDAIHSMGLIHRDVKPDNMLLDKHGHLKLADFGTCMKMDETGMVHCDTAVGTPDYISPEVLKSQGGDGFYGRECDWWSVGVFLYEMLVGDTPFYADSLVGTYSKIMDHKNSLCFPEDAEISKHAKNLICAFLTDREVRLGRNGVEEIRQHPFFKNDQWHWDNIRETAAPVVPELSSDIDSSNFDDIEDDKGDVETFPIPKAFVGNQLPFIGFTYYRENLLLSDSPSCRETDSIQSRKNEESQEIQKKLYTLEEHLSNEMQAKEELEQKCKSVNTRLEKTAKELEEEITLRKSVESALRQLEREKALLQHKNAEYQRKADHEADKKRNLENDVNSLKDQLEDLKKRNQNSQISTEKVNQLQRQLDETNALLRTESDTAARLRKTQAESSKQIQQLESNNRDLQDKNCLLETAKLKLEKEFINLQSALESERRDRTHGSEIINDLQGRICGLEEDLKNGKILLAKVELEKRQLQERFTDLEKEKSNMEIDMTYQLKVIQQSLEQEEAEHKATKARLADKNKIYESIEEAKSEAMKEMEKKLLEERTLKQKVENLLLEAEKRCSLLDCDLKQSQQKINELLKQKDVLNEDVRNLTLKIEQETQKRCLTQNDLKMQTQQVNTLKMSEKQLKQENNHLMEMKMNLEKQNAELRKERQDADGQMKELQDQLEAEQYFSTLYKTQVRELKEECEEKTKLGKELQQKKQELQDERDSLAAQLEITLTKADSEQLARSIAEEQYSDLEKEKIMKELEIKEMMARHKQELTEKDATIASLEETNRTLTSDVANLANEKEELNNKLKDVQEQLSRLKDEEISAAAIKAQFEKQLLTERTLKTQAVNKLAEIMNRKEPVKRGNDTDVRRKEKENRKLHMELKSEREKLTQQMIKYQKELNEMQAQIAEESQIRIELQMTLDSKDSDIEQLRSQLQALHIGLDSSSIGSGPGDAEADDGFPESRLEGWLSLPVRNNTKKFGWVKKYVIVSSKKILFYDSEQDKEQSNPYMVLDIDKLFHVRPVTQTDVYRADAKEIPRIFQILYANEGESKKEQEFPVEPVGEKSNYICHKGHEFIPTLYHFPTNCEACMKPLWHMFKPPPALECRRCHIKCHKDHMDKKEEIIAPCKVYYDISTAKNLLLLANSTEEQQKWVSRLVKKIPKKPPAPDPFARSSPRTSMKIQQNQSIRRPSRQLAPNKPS

hCAMK2G = biological target: T19, hCAMK2G (Homo sapiens, UniProt Q13555); experiment: KINOMEscan; type: binding
T19 construct: purchased DiscoverX

hLATS2 = biological target: T20, hLATS2 (Homo sapiens, UniProt Q9NRM7); experiment: KINOMEscan; type: binding
T20 construct: purchased DiscoverX (KINOMEscan platform)

hDLK = biological target: T21, hDLK (Homo sapiens, UniProt Q12852); experiment: KINOMEscan; type: binding
T21 construct: purchased DiscoverX (KINOMEscan platform)

hCSF1R-autoinhib = biological target: T22, hCSF1R-autoinhib (Homo sapiens, UniProt P07333); experiment: KINOMEscan; type: binding; details: read-out: Inhibition at the 20 μM dose
T22 construct: purchased DiscoverX (KINOMEscan platform)

hTNIK = biological target: T23, hTNIK (Homo sapiens, UniProt Q9UKE5); experiment: KINOMEscan; type: binding
T23 construct: purchased DiscoverX

hRXRα = biological target: T24, hRXRα (Homo sapiens, UniProt P19793); experiment: Nuclear hormone receptor assay (Eurofins-CEREP); details: read-out: Relative IC50
T24 construct: Eurofins-CEREP

[3] = tested on: SMYD2-induced p53 methylation; experiment: Cell-based ELISA for p53 Lys370me1, U2OS cells transfected with FLAG-SMYD2; details: Homo sapiens, 15 h
Protocol: as §1

hABL1(pQ252H) = biological target: T25, hABL1(pQ252H) (Homo sapiens, UniProt P00519, Q252H); experiment: KINOMEscan; type: binding
T25 construct: purchased DiscoverX (KINOMEscan platform)

h5HT2B = h5HT2B (Homo sapiens, UniProt P41595); experiment: Calcium Mobilization Agonist (Eurofins-CEREP); details: @ 13.3 μM

With `Cc1cn(CCN2CCN(c3ccccc3-c3cc(C#N)cc(C(=O)NCCCN4CCCC4)c3)CC2)c2ccccc12` [LLY-507, 3-cyano-5-{2-[4-[2-(3-methylindol-1-yl)ethyl]piperazin-1-yl]-phenyl}-N-[(3-pyrrolidin-1-yl)propyl]benzamide] the pIC50 (hLOK) was under 4.70, the pIC50 (hCAMK4) was under 4.70 and the pIC50 (hFXR) was under 5.00. The “% Effect, Stimulation” value (hADRβ1 [1]) was 52.7%, the pIC50 (mono-methyl-Lys370 p53) was 6.22 and the pIC50 (hTAOK2) was under 4.70. For the same molecule, the pIC50 (hMEK2) was under 4.70, the pIC50 (hTNK1) was under 4.70 and the “% Effect, Potentiation” value (hADRβ1 [2]) was 32.1%. For the same molecule, the pIC50 (hKIT(V559D)) was under 4.70, the pIC50 (hABL1(pM351T)) was under 4.70 and the pIC50 (hCAMK2D) was under 4.70. For the same molecule, the pIC50 (hRIPK4) was under 4.70, the pIC50 (hZAK) was under 4.70 and the pIC50 (hSIK) was under 4.70. It also gave a pIC50 (hCAMK2A) of under 4.70, a pIC50 (hADCK4) of under 4.70 and a pIC50 (hRARγ) of under 5.00. The pIC50 (hEPHA4) was under 4.70, the pIC50 (hALK(L1196M)) was under 4.70 and the pIC50 (hROCK2) was under 4.70. It also gave a pIC50 (hCAMK2G) of under 4.70, a pIC50 (hLATS2) of under 4.70 and a pIC50 (hDLK) of under 4.70. For the same molecule, the inhibition at 20 µM (hCSF1R-autoinhib) was under 50%, the pIC50 (hTNIK) was under 4.70 and the pIC50 (hRXRα) was under 5.00. The pIC50 [3] was 6.22, the pIC50 (hABL1(pQ252H)) was under 4.70 and the “% Effect, Stimulation” value (h5HT2B) was 3.4%.
